# Reference: US4738971A, “N-aryl-1,2-dihydro-4-substituted-1-alkyl-2-oxo-quinoline-3-carboxamides” (priority 1981, dated 1988)
# Like-named read-outs stand apart in the source and are kept apart here.
# Columns and labels:
# [1] = tested on: carrageenan-induced edema; assay: carrageenan edema test in rats; type: in vivo, rat (female Sprague-Dawley); details: for change in vivo at 80 mg/kg: Rattus norvegicus, po, 80 mg/kg p.o., 30 min before carrageenan, edema weight 3 h after, vs control, preliminary, read-out: Potentiation of the carrageenan edema, %; for significant potentiation of the carrageenan edema: dose within the range 10-160 mg/kg p.o.
# Excerpt: Another test, in which the effect of a drug corresponds to the effects obtained in the tests mentioned above, and which can therefore also be used, is the well-established carrageenan edema test in rats (5). Comparative evaluation of compounds of the present invention in the three tests mentioned has shown that compounds which increase the extent of the delayed hypersensitivity reaction in the pertussis vaccine pleurisy test and in the adjuvant arthritis test also increase the extent of carrageenan-induced edema in the carrageenan edema test, thus providing a further tool for the determination of enhancement of cell-mediated immunity.
# This example illustrates the effect of the compounds of the general formula I in the carrageenan edema test in rats.
# A modification of a method described in (5) was used. Female Sprague-Dawleyrats weighing 110-120 g was used. At least 10 animals were used in each experimental group. Foot edema was induced by injecting carrageenan in 0.9% NaCl into the plantar surface of the right hind paw of the rats.
# The substances suspended in aqueous methocel solution 10 ml/kg were administered intragastrically 30 minutes before the injection of carrageenan. The control groups were given methocel solution 10 ml/kg.
# Three hours after carrageenan injection the animals were killed. The hind feet were cut off and weighed. The difference in weight of the injected right paw and the uninjected left paw was called edema weight.
# The effect of the substances was assessed by the edema weight expressed in percent after comparison with the control groups.
# [2] = tested on: delayed hypersensitivity reaction (pertussis vaccine pleurisy); assay: pertussis vaccine pleurisy test in rats; type: in vivo, rat (male Sprague-Dawley); details: for change in vivo at 10 mg/kg: Rattus norvegicus, po, 48 h, read-out: Enhancement of the delayed hypersensitivity reaction assessed by the exudate vol.
# Procedure, shortened: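 Male Sprague-Dawley rats (250-275 g, ≥10/group) sensitized day 0 with heat-killed B. pertussis in Freund's incomplete adjuvant into hind and forepaw, challenged intrapleurally day 12. Compounds in aqueous methocel given intragastrically once daily days 10-13. Pleural exudate volume measured day 14, expressed as percent of methocel control.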
# [3] = tested on: delayed hypersensitivity reaction (adjuvant arthritis, Mycobacterium butyricum); assay: adjuvant arthritis test in rats; type: in vivo, rat (male Lister hooded); details: for change in vivo at 20 mg/kg / change in vivo at 40 mg/kg / change in vivo at 10 mg/kg: Rattus norvegicus, po, 336 h, read-out: Increase of the volume of the left foot; for change in vivo at 20 mg/kg: 20 mg/kg p.o.; for change in vivo at 10 mg/kg: 10 mg/kg p.o.
# Excerpt: (§1) The adjuvant arthritis test in rats produces a measureable extent of a delayed hypersensitivity reaction and can be used for a determination of variations in the extent of the delayed hypersensitivity reaction upon drug administration to the host. An increase in the extent of the delayed hypersensitivity reaction upon drug administration consequently indicates enhanced cell-mediated immunity in the host.
# This example illustrates the effect of the compounds of the general formula I in the adjuvant arthritis test in rats.
# as §1, with “produces” for “produces a measureable extent of”, “variations” for “variations in the extent”
# A modification of a method described in (12) was used. Male Lister hooded rats weighing 250-275 g were used. At least 9 animals were used in each experimental group.
# A single intradermal injection of 0.5 mg/0.1 ml heat killed Mycobacterium butyricum suspended in sterile liquid paraffinum was given into the right hind foot of all rats. After this injection, day 0, the volume of the left hind paw, measured by water displacement, was followed to the end of the experiment.
# The substances suspended in aqueous methocel solution 10 ml/kg were given intragastrically. The control group was given methocel solution 10 ml/kg. The different groups of animals were thus treated once daily from day -4 to day 14. The effect of the substances was assessed by the left foot volume expressed in percent after comparison with the control groups.
# [4] = 10 mg/kg p.o., once daily day 10 to day 13, vs control, preliminary
# [5] = once daily day -4 to day 14, vs control, preliminary
# [6] = 40 mg/kg p.o., once daily day -4 to day 14, vs control, preliminary
smiles,measurement,setting,value
"Cn1c(=O)c(C(=O)Nc2ccccc2)c(O)c2ccccc21 [1:1, N-phenyl-1,2-dihydro-4-hydroxy-1-methyl-2-oxo-quinoline-3-carboxamide]",change in vivo at 80 mg/kg,[1],40%
same,change in vivo at 10 mg/kg,[2]; [4],55%
same,change in vivo at 20 mg/kg,[3]; [5],50%
same,change in vivo at 40 mg/kg,[3]; [6],41%
"COc1ccc2c(c1)c(O)c(C(=O)Nc1ccccc1)c(=O)n2C [1:2, N-phenyl-1,2-dihydro-4-hydroxy-6-methoxy-1-methyl-2-oxo-quinoline-3-carboxamide]",change in vivo at 80 mg/kg,[1],61%
same,significant enhancing effect in the pertussis vaccine pleurisy test,[2]; 10 mg/kg p.o.,significant enhancing effect
same,significant potentiating effect in the adjuvant arthritis test,[3]; 40 mg/kg p.o.,significant potentiating effect
"Cn1c(=O)c(C(=O)Nc2ccc(Cl)cc2)c(O)c2ccccc21 [1:9, N-/4-chlorophenyl/-1,2-dihydro-4-hydroxy-1-methyl-2-oxo-quinoline-3-carboxamide]",change in vivo at 80 mg/kg,[1],48%
same,significant enhancing effect in the pertussis vaccine pleurisy test,[2]; 10 mg/kg p.o.,significant enhancing effect
same,significant potentiating effect in the adjuvant arthritis test,[3]; 40 mg/kg p.o.,significant potentiating effect
"CCn1c(=O)c(C(=O)Nc2ccccc2)c(O)c2ccccc21 [1:10, N-phenyl-1,2-dihydro-1-ethyl-4-hydroxy-2-oxo-quinoline-3-carboxamide]",change in vivo at 80 mg/kg,[1],68%
same,change in vivo at 10 mg/kg,[2]; [4],30%
same,significant potentiating effect in the adjuvant arthritis test,[3]; 40 mg/kg p.o.,significant potentiating effect
"CN(C)c1ccc(NC(=O)c2c(O)c3ccccc3n(C)c2=O)cc1 [1:11, N-/4-dimethylaminophenyl/-1,2-dihydro-4-hydroxy-1-methyl-2-oxo-quinoline-3-carboxamide]",change in vivo at 80 mg/kg,[1],76%
same,change in vivo at 10 mg/kg,[2]; [4],37%
same,change in vivo at 40 mg/kg,[3]; [6],45%
"Cn1c(=O)c(C(=O)Nc2ccc(CC(=O)O)cc2)c(O)c2ccccc21 [1:12, N-/4-carboxymethylphenyl/-1,2-dihydro-4-hydroxy-1-methyl-2-oxo-quinoline-3-carboxamide]",change in vivo at 80 mg/kg,[1],29%
same,change in vivo at 10 mg/kg,[2]; [4],65%
same,significant potentiating effect in the adjuvant arthritis test,[3]; 40 mg/kg p.o.,significant potentiating effect
"Cn1c(=O)c(C(=O)Nc2ccccc2)c(O)c2c(F)cccc21 [1:19, N-phenyl-1,2-dihydro-5-fluoro-4-hydroxy-1-methyl-2-oxo-quinoline-3-carboxamide]",change in vivo at 80 mg/kg,[1],67%
same,significant enhancing effect in the pertussis vaccine pleurisy test,[2]; 10 mg/kg p.o.,significant enhancing effect
same,significant potentiating effect in the adjuvant arthritis test,[3]; 40 mg/kg p.o.,significant potentiating effect
"COc1cccc2c(O)c(C(=O)Nc3ccccc3)c(=O)n(C)c12 [1:22, N-phenyl-1,2-dihydro-4-hydroxy-8-methoxy-1-methyl-2-oxo-quinoline-3-carboxamide]",change in vivo at 80 mg/kg,[1],58%
same,significant enhancing effect in the pertussis vaccine pleurisy test,[2]; 10 mg/kg p.o.,significant enhancing effect
same,significant potentiating effect in the adjuvant arthritis test,[3]; 40 mg/kg p.o.,significant potentiating effect
"CN(C(=O)c1c(O)c2ccccc2n(C)c1=O)c1ccccc1 [1:43, N-phenyl-N-methyl-1,2-dihydro-4-hydroxy-1-methyl-2-oxo-quinoline-3-carboxamide]",change in vivo at 80 mg/kg,[1],84%
same,change in vivo at 10 mg/kg,[2]; [4],70%
same,significant potentiating effect in the adjuvant arthritis test,[3]; 40 mg/kg p.o.,significant potentiating effect
same,change in vivo at 10 mg/kg,[3]; [5],48%
"O=C(Nc1ccccc1)c1c(O)c2cccc3c2n(c1=O)CC3 [2:2, N-phenyl-1,2-dihydro-1,8-ethylene-4-hydroxy-2-oxo-quinoline-3-carboxamide]",change in vivo at 80 mg/kg,[1],43%
same,change in vivo at 10 mg/kg,[2]; [4],64%
same,change in vivo at 40 mg/kg,[3]; [6],40%
"O=C(Nc1ccccc1)c1c(O)c2cccc3c2n(c1=O)CCC3 [2:3, N-phenyl-1,2-dihydro-4-hydroxy-2-oxo-1,8-trimethylene-quinoline-3-carboxamide]",change in vivo at 80 mg/kg,[1],61%
same,change in vivo at 10 mg/kg,[2]; [4],66%
same,change in vivo at 40 mg/kg,[3]; [6],39%
"COc1c(C(=O)Nc2ccccc2)c(=O)n(C)c2ccccc12 [6:1, N-phenyl-1,2-dihydro-4-methoxy-1-methyl-2-oxo-quinoline-3-carboxamide]",change in vivo at 80 mg/kg,[1],60%
same,change in vivo at 10 mg/kg,[2]; [4],91%
same,change in vivo at 40 mg/kg,[3]; [6],34%
"Cn1c(=O)c(C(=O)Nc2nccs2)c(O)c2ccccc21 [7:1, N-(2-thiazolyl)-1,2-dihydro-4-hydroxy-1-methyl-2-oxo-quinoline-3-carboxamide]",change in vivo at 80 mg/kg,[1],84%
same,change in vivo at 10 mg/kg,[2]; [4],81%
same,change in vivo at 20 mg/kg,[3]; [5],44%
same,change in vivo at 40 mg/kg,[3]; [6],35%
"Cn1c(=O)c(C(=O)Nc2cnccn2)c(O)c2ccccc21 [7:4, N-pyrazinyl-1,2-dihydro-4-hydroxy-1-methyl-2-oxo-quinoline-3-carboxamide]",change in vivo at 80 mg/kg,[1],34%
same,change in vivo at 10 mg/kg,[2]; [4],27%
same,change in vivo at 40 mg/kg,[3]; [6],29%
"CN(C)c1ccc(NC(=O)c2c(O)c3cc(N(C)C)cc4c3n(c2=O)CCC4)cc1 [13:3, N-(4-dimethylaminophenyl)-1,2-dihydro-6-dimethylamino-4-hydroxy-2-oxo-1.8-trimethylene-quinoline-3-carboxamide]",significant potentiation of the carrageenan edema,[1],potentiate significantly
same,significant enhancing effect in the pertussis vaccine pleurisy test,[2]; 10 mg/kg p.o.,significant enhancing effect
same,significant potentiating effect in the adjuvant arthritis test,[3]; 40 mg/kg p.o.,significant potentiating effect
"CCN(C(=O)c1c(O)c2ccccc2n(C)c1=O)c1ccccc1 [21:5, N-ethyl-N-phenyl-1,2-dihydro-4-hydroxy-1-methyl-2-oxo-quinoline-3-carboxamide]",significant potentiation of the carrageenan edema,[1],potentiate significantly
same,change in vivo at 10 mg/kg,[2]; [4],29%
same,significant potentiating effect in the adjuvant arthritis test,[3]; 40 mg/kg p.o.,significant potentiating effect
"COc1ccc(N(C)C(=O)c2c(O)c3ccccc3n(C)c2=O)cc1 [21:6, N-(4-methoxyphenyl)-N-methyl-1,2-dihydro-4-hydroxy-1-methyl-2-oxo-quinoline-3-carboxamide]",change in vivo at 80 mg/kg,[1],38%
same,change in vivo at 10 mg/kg,[2]; [4],90%
same,change in vivo at 10 mg/kg,[3]; [5],41%
"CN(C(=O)c1c(O)c2ccccc2n(C)c1=O)c1ccccn1 [21:7, N-methyl-N-(2-pyridyl)-1,2-dihydro-4-hydroxy-1-methyl-2-oxo-quinoline-3-carboxamide]",significant potentiation of the carrageenan edema,[1],potentiate significantly
same,change in vivo at 10 mg/kg,[2]; [4],21%
same,significant potentiating effect in the adjuvant arthritis test,[3]; 40 mg/kg p.o.,significant potentiating effect
"CN(C(=O)c1c(O)c2ccccc2n(C)c1=O)c1ccc(Cl)cc1 [21:9, N-(4-chlorophenyl)-N-methyl-1,2-dihydro-4-hydroxy-1-methyl-2-oxo-quinoline-3-carboxamide]",change in vivo at 80 mg/kg,[1],52%
same,change in vivo at 10 mg/kg,[2]; [4],84%
same,change in vivo at 10 mg/kg,[3]; [5],51%
"CN(C(=O)c1c(O)c2cccc3c2n(c1=O)CC3)c1nccs1 [21:31, N-methyl-N-2-thiazolyl-1,2-dihydro-1,8-ethylene-4-hydroxy-2-oxo-quinoline-3-carboxamide]",significant enhancing effect in the pertussis vaccine pleurisy test,[2]; 10 mg/kg p.o.,significant enhancing effect
same,significant potentiating effect in the adjuvant arthritis test,[3]; 40 mg/kg p.o.,significant potentiating effect
"CCN(C(=O)c1c(O)c2cccc3c2n(c1=O)CCC3)c1ccccn1 [21:33, N-ethyl-N-2-pyridyl-1,2-dihydro-4-hydroxy-2-oxo-1,8-trimethylene-quinoline-3-carboxamide]",significant enhancing effect in the pertussis vaccine pleurisy test,[2]; 10 mg/kg p.o.,significant enhancing effect
same,significant potentiating effect in the adjuvant arthritis test,[3]; 40 mg/kg p.o.,significant potentiating effect
"CC(C)(S)[C@@H](N)C(=O)O [Penicillamine, penicillamine, reference compound]",change in vivo at 10 mg/kg,[2],17%
same,change in vivo at 40 mg/kg,[3],0%
